{"source": "patent US20150299061A1", "about": "“FERTILISER COMPOSITION” (priority 2012, published 2015)", "test_system": "grazed pasture", "test": "Field trial on grazed pasture: pasture shoot dry matter from two cuts after treatment application", "format": "in vivo", "set-up": "Mean Difference vs C (control) / Mean Difference vs UG-20 / Mean Difference vs UG-20 + GA-10 / Mean Difference vs UG-20 + GA-30 / Mean Difference vs UG-20 + GA-60 / Mean Difference vs UL-20 / Mean Difference vs UL-20 + GA-20 / Mean Difference (Control minus treatment): unit not given here", "method": "The trial was carried out with a total of eight treatments. The eight treatment groups were • 1. Control—negative control (no nitrogen or gibberellic acid), • 2. GA-20—gibberellic acid positive control (gibberellic acid applied at 20 g/ha), • 3. UG-20—granular urea positive control (granular urea applied at a rate of 20 kg N/ha, • 4. UG-20+GA-10—10 g/ha gibberellic acid-coated urea granules (granular urea-20 coated with gibberellic acid to apply gibberellic acid at a rate of 10 g/ha), • 5. UG-20+GA-30—30 g/ha gibberellic acid-coated urea granules (granular urea-20 coated with gibberellic acid to apply gibberellic acid at a rate of 30 g/ha), and • 6. UG-20+GA-60—60 g/ha gibberellic acid-coated urea granules (granular urea-20 coated with gibberellic acid to apply gibberellic acid at a rate of 60 g/ha). • 7. UL-20—liquid urea positive control (liquid urea applied at a rate of 20 kg N/ha [with total liquid volume of 200 L/ha]), and 8. UL-20+GA-20—liquid urea and gibberellic acid positive control (liquid urea applied at a rate of 20 kg N/ha with gibberellic acid applied at a rate of 20 g/ha).\nThe trial was performed with four repetitions per treatment group on a plot with an area of 2 m^2×2 m^2 at locations in Whangarei, Matamata, Lincoln, Ashburton, and Southland.\nThe treatments were applied on grazed pasture. All experimental sites were fenced off four months prior to treatment application to avoid nitrogen inputs from grazing animals and fertiliser application. At each site, four blocks separated by a 1 m buffer were established. Each block contained eight small plots (each plot of 2m^2×2m^2) separated by a 1 m buffer zone to give a total of 32 plots.\nThe above eight treatments were applied in mid August 2011. Before treatments application, four composite soil samples (0-10 cm soil depth), were collected for key soil properties (i.e. soil pH, organic C &N, Olsen P, K, Ca, Mg, CEC, base saturation and MAF quick test). Each composite soil sample composed of 10 randomly collected soil samples from each block. Pastures from each plot were cut at 4 to 5 cm height using a lawn mower at appropriate times (preferably after every 21 days) to simulate rotational grazing practices. Bulk fresh pasture weight for each plot was recorded. Before mowing pastures from each plot, four small randomly picked pasture samples from each plot were cut using a pair of scissors. Fresh pastures were transferred to sealable plastic bags and were kept in a chilly bin. Fresh pastures from each plastic bag were then be transferred to a pre-weighed paper bag, weighed (at least 2 decimal balance), and dried at 60 to 70° C. for one week. After one week of drying, dry pasture weight was recorded to determine pasture moisture content.\nIn the case of liquid treatments, these were all applied at a rate of 200 L/ha.\nThe effectiveness of the treatments was measured by comparing the pasture shoot dry matter from two cuts after treatment application. The first cut was made on 26 Sep. 2011 and the second cut made on 12 Oct. 2011.\nThe pairwise comparisons were calculated using Fisher's least significant difference (LSD) with P=0.05.", "note": "Marks after values point to notes of the source that are not given here."}
{"smiles": "C=C1C[C@]23C[C@@]1(O)CC[C@H]2[C@@]12C=C[C@H](O)[C@@](C)(C(=O)O1)[C@H]2[C@@H]3C(=O)O", "note": "[GA-20 only, gibberellic acid]", "values": [{"measurement": "Cumulative mean pasture dry matter", "setting": "mean for the five treatment areas (Whangarei, Matamata, Lincoln, Ashburton, Southland), two cuts after treatment", "value": 3038.7}, {"measurement": "Mean Difference (Control minus treatment)", "setting": "pairwise comparison of Table 1 means, Fisher's LSD P=0.05, Control is first treatment, labelled treatment is subtracted", "value": "−757.857*"}, {"measurement": "Mean Difference vs C (control)", "setting": "pairwise comparison, Fisher's LSD P=0.05, treatment minus C", "value": "757.857*"}, {"measurement": "Mean Difference vs UG-20", "setting": "pairwise comparison, Fisher's LSD P=0.05, treatment minus UG-20", "value": 56.321}, {"measurement": "Mean Difference vs UG-20 + GA-10", "setting": "pairwise comparison, Fisher's LSD P=0.05, treatment minus UG-20 + GA-10", "value": "−91.281"}, {"measurement": "Mean Difference vs UG-20 + GA-30", "setting": "pairwise comparison, Fisher's LSD P=0.05, treatment minus UG-20 + GA-30", "value": "−427.001*"}, {"measurement": "Mean Difference vs UG-20 + GA-60", "setting": "pairwise comparison, Fisher's LSD P=0.05, treatment minus UG-20 + GA-60", "value": "−381.674*"}, {"measurement": "Mean Difference vs UL-20", "setting": "pairwise comparison, Fisher's LSD P=0.05, treatment minus UL-20", "value": "−141.578"}, {"measurement": "Mean Difference vs UL-20 + GA-20", "setting": "pairwise comparison, Fisher's LSD P=0.05, treatment minus UL-20 + GA-20", "value": "−423.846*"}]}
